Measured values taken from patent US11096947B2, “Combination products with tyrosine kinase inhibitors and their use” (Novartis AG, priority 2012, dated 2021).

Experiments:
[1] = system: HCC827GR5 subcutaneous xenografts; assay: Efficacy experiments in mice bearing HCC827GR5 subcutaneous xenografts; type: in vivo; conditions: for antitumor effect as single agent: Discussion; for antitumor effect as single agent / regressions / Delta tumor volume: MET inhibitor 3 mg/kg, gefitinib 25 mg/kg; for regressions: orally once a day; for regressions / T/C: 13 days; for T/C: gefitinib 25 mg/kg orally once a day
Experimental: Experiments were performed in female Hsd: Athymic nude-nu CPB mice obtained from Harlan Winkelmann, Germany. Animally were approximately 11 weeks of age at treatment start and housed under Optimized Hygienic Conditions (OHC) in Macrolon type III cages (max. 5 animals per cage) with free access to food and water.
Cell line identity has been confirmed by SNP genotyping. Cells were grown in RPMI 1640 medium (Amimed #1-41F01-1) supplemented with 10% heat inactivated FCS, (Amimed #2-01F16-1), 2 mM L-glutamine (Amimed #5-10K00-H), 1 mM sodium pyruvate (Amimed #5-60F00-H) and 10 mM HEPES (Gibco #15630). […]. Cells were incubated at 37° C. in a humidified atmosphere with 5% CO2.
HCC827GR5 tumors were established by subcutaneous injection of 5×10^6 cells in 115 μl HBSS (Hank's buffered salt solution) containing 50% Matrigel (v/v) (gelatinous protein mixture secreted by Engelbreth-Holm-Swarm (EHS) mouse sarcoma cells, BD Biosciences, Franklin Lakes, N.J., USA) into the right flank of mice, with a 13 gauge trocar needle under Forene® (Isofluran; Abott, Switzerland) anesthesia. In the efficacy experiments, treatments started when the tumors reached an average size of 150 mm^3, 11 days post tumor implantation. In the PK/PD experiment, treatments were started when the mean tumor size was 450 mm^3, 15 days post tumor implantation.
The application volumes were 10 ml/kg for the single agents and for the vehicle control group or 5 ml/kg when the test compounds were given in combination. All indicated doses refer to free base equivalent of 2-Fluoro-N-methyl-4-[(7-quinolin-6-yl-methyl)-imidazo[1,2-b]triazin-2-yl]benzamide (dihydrochloride salt). […].
Tumor volumes were measured with calipers and determined according to the formula length×diameter^2×π/6. In addition to presenting changed of tumor volumes over the course of treatments, antitumor activity is expressed as T/C % ((mean change of tumor volume of treated animals/mean change of tumor volume of control animals)×100). Regressions (%) were calculated according to the formula ((mean tumor volume at end of treatment−mean tumor volume at start of treatment)/mean tumor volume at start of treatment)×100. Body weights and tumor volumes were recorded twice a week.
Statistics: Were applicable, data is presented as mean±SEM. For all tests, the level of significance was set at p<0.05. For tumor volumes, comparisons between treatment groups and vehicle control group were done using one-way ANOVA followed by Dunnett's test. Pairwise comparisons were done using a one way ANOVA followed by Tukey's test. The level of significance of body weight change within a group between the start and the end of the treatment period was determined using a paired t-test. Comparisons of delta body weighs between treatment and vehicle control groups were performed by a one-way ANOVA followed by a post hoc Dunnett's test. Calculations were performed using GraphPad Prism 4 for Windows (GraphPad Software Inc.). In addition, an approximation of drug interactions was made using the method described by Clarke (Clarke R., Breast Cancer Research and Treatment 46, 255-278 (1997)). This was applied to delta tumor volumes and can estimate interactions from limited data. In short, the combination data was assessed using the method presented by Clarke which can estimate interactions from limited data. For compound A, B or the combination AB (with control group C), antagonism is predicted when the calculation AB/C>A/C×B/C, additive effect: AB/C=A/C×B/C, synergistic interactions are predicted to occur when AB/C<A/C×B/C.
The body weight increase was statistically significant in all groups excepted the combination group (p<0.05, paired t-test).

HCC827 GR cells = assay: Proliferation assay (resazurin / AlamarBlue readout) in gefitinib-resistant HCC827 GR cells; type: cell-based; conditions: monotherapy
Experimental: 24 h later, a 10-point dilution series of each compound was prepared in DMSO. […] A DMSO-only control was included. […] Recombinant human HGF (PeproTech, catalogue number 100-39) was added together with compounds at a constant concentration as indicated in the respective experiments. Cells were incubated for 72 to 96 h and the amount of viable cells was then assessed using a resazurin sodium salt dye reduction readout (commercially known as AlamarBlue® assay, Invitrogen, Life Technologies Corporation, Grand Island, N.Y., USA). Values were normalized and plotted as either “% of control” with the DMSO control set to 100%, or as “fold seeded cells”. In this case a resazurin readout of separate wells with untreated cells was obtained 24 h after seeding in order to determine a “seeded cells” value for normalization.

[2] = system: HCC827GR5 subcutaneous xenografts; assay: Follow-up of HCC827GR5 xenografts after treatment discontinuation or extension; type: in vivo, mice; conditions: 4 animals
Experimental: FIG. 5: Graphic representation of the change of tumor volumes over time after treatment discontinuation in mice (in vivo) as described in more detail in the Examples. […] Treatments started 11 days post tumor cells implantation and lasted 13 consecutive days. […] Four animals were kept under observation, without any treatment (left panel) while the two other groups of 4 animals each were kept under daily treatment as before (right panel). Tumor volumes and body weights were recorded only once a week. Horizontal lines are set at 100 and 500 mm^3 tumor volumes.
[…]. Treatments started 11 days post tumor cells implantation and lasted 13 consecutive days. […] Four animals were kept under observation, without any treatment (left panel) while the two other groups of 4 animals each were kept under daily treatment as before (right panel). Tumor volumes and body weights were recorded only once a week. Horizontal lines are set at 100 and 500 mm^3 tumor volumes, respectively. […] […]. The tumors in the animals that received the combination therapy continued to regress from a mean volume of 33+/−1.3 to 26.3+/−2.8 mm^3 (representing a mean of 89.2% regression from the initial volume).

[3] = system: c-MET-driven or HGF/c-MET-driven xenograft; assay: c-MET-driven or HGF/c-MET-driven xenograft mouse tumor models; type: in vivo; conditions: oral dosing
Excerpt: […]. […] […]. […] Importantly, cell lines with simultaneous HGF and c-MET expression are also relatively resistant to EGFR inhibitors compared to cell lines with similar c-MET level that lack HGF expression.

HCC827 cells = assay: Proliferation assay (resazurin / AlamarBlue readout) in HCC827 cells; type: cell-based; conditions: single agent, up to 1 μM
Experimental: A DMSO-only control was included. […] Recombinant human HGF (PeproTech, catalogue number 100-39) was added together with compounds at a constant concentration as indicated in the respective experiments. Cells were incubated for 72 to 96 h and the amount of viable cells was then assessed using a resazurin sodium salt dye reduction readout (commercially known as AlamarBlue® assay, Invitrogen, Life Technologies Corporation, Grand Island, N.Y., USA). Values were normalized and plotted as either “% of control” with the DMSO control set to 100%, or as “fold seeded cells”. In this case a resazurin readout of separate wells with untreated cells was obtained 24 h after seeding in order to determine a “seeded cells” value for normalization. Plotting of the data and curve-fitting were done with GraphPad Prism version 5.00 for Windows (GraphPad Software, Inc., La Jolla, Calif., USA).

| Structure (SMILES) | antitumor effect as single agent [1] | regressions ([1]; first experiment (FIG. 3)) [%] | Delta tumor volume ([1]; first experiment, Table 1) | regressions ([1]; second experiment (FIG. 4)) [%] | Delta tumor volume ([1]; second experiment, Table 2) | effect of single agent on proliferation of HCC827 GR cells (HCC827 GR cells) | tumor volume, mean+/−SEM, after treatment discontinuation ([2]; no treatment after day 24 (FIG. 5 left graph)) | tumor volume, mean, under extended daily treatment ([2]; treatment continued after day 24 (FIG. 5 right panel)) | in vivo activity in blocking c-MET phosphorylation and tumor growth [3] | effect on proliferation of the HCC827 cells (HCC827 cells) | T/C ([1]; first experiment (FIG. 3)) [%] | T/C ([1]; second experiment (FIG. 4)) [%] |
| --- | --- | --- | --- | --- | --- | --- | --- | --- | --- | --- | --- | --- |
| CNC(=O)c1ccc(-c2cnc3ncc(Cc4ccc5ncccc5c4)n3n2)cc1F [2-fluoro-N-methyl-4-[(7-quinolin-6-yl-methyl)-imidazo[1,2-b]triazin-2-yl]benzamide] | slight statistically significant tumor regressions | 22.9 | −60.2 | 21.4 | −55.7 | modest | 516+/−112 mm^3 | 400+/−80 mm^3 | significant in vivo activity | did not show any substantial effect |  |  |
| COc1cc2ncnc(Nc3ccc(F)c(Cl)c3)c2cc1OCCCN1CCOCC1 [gefitinib, N-(3-hloro-4-fluorophenyl)-7-methoxy-6-[3-(morpholin-4-yl)propoxy]quinazolin-4-amine, reference compound] | statistically significant antitumor effects, but never regressions |  | 173.1 |  | 261 |  |  |  |  |  | 32.5 | 49.4 |
